Results: ChEMBL document CHEMBL1201862, “PubChem BioAssay data set” (2004)
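In this assay, cells in 96-well plates receive the compound at five concentrations for 48 hours. Endpoints are linearly interpolated between the surrounding concentrations. The concentration for 50% growth inhibition is given as GI50.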 Calls of active or inactive are those of the source. Rule as the data show it: active = GI50 up to about 1.1 µM and inactive = higher.

Legend:
Experiment in all cases: NCI tumour cell line growth inhibition, 48 h
786-0 = tested on: 786-0
A498 = tested on: A498
A549 = tested on: A549
ACHN = tested on: ACHN
BT-549 = tested on: BT-549
CAKI-1 = tested on: CAKI-1
CCRF-CEM = tested on: CCRF-CEM
COLO 205 = tested on: COLO 205
DLD-1 = tested on: DLD-1
DMS-114 = tested on: DMS-114
DMS-273 = tested on: DMS-273
DU-145 = tested on: DU-145
EKVX = tested on: EKVX
HCC 2998 = tested on: HCC 2998
HCT-116 = tested on: HCT-116
HCT-15 = tested on: HCT-15
HL-60 = tested on: HL-60
HOP-18 = tested on: HOP-18
HOP-62 = tested on: HOP-62
HOP-92 = tested on: HOP-92
HT-29 = tested on: HT-29
Hs-578T = tested on: Hs-578T
IGROV-1 = tested on: IGROV-1
K562 = tested on: K562
KM-20L2 = tested on: KM-20L2
KM12 = tested on: KM12
LOX IMVI = tested on: LOX IMVI
LXFL 529 = tested on: LXFL 529
M14 = tested on: M14
M19-MEL = tested on: M19-MEL
MCF7 = tested on: MCF7
MDA-MB-231 = tested on: MDA-MB-231
MDA-MB-435 = tested on: MDA-MB-435
MDA-N = tested on: MDA-N
MOLT-4 = tested on: MOLT-4
Malme-3M = tested on: Malme-3M
NCI-H226 = tested on: NCI-H226
NCI-H23 = tested on: NCI-H23
NCI-H460 = tested on: NCI-H460
NCI-H522 = tested on: NCI-H522
NCI/ADR-RES = tested on: NCI/ADR-RES
OVCAR-3 = tested on: OVCAR-3
OVCAR-4 = tested on: OVCAR-4
OVCAR-5 = tested on: OVCAR-5
OVCAR-8 = tested on: OVCAR-8
PC-3 = tested on: PC-3
RPMI-8226 = tested on: RPMI-8226
RXF 393 = tested on: RXF 393
RXF 631 = tested on: RXF 631
SF-268 = tested on: SF-268
SF-295 = tested on: SF-295
SF-539 = tested on: SF-539
SK-MEL-28 = tested on: SK-MEL-28
SK-MEL-2 = tested on: SK-MEL-2
SK-MEL-5 = tested on: SK-MEL-5
SK-OV-3 = tested on: SK-OV-3
SN12C = tested on: SN12C
SNB-19 = tested on: SNB-19
SNB-75 = tested on: SNB-75
SNB-78 = tested on: SNB-78
SR = tested on: SR
SW-620 = tested on: SW-620
T47D = tested on: T47D
TK-10 = tested on: TK-10
U-251 = tested on: U-251
UACC-257 = tested on: UACC-257
UACC-62 = tested on: UACC-62
UO-31 = tested on: UO-31
XF498 = tested on: XF498

Measured: GI50

CNC(=O)/C(=C/c1ccc(OC)cc1)c1cc(OC)c(OC)c(OC)c1
743 nM: HCT-15
inactive: 786-0 3470 nM | A498 3510 nM | A549 1690 nM | ACHN 8650 nM | BT-549 50800 nM | CAKI-1 2470 nM | CCRF-CEM 2320 nM | COLO 205 1160 nM | DLD-1 2250 nM | DMS-114 2300 nM | DU-145 2740 nM | EKVX 10100 nM | HCC 2998 2450 nM | HCT-116 1550 nM | HOP-18 > 71100 nM | HOP-62 2270 nM | HOP-92 13900 nM | Hs-578T 1610 nM | IGROV-1 4760 nM | KM-20L2 1280 nM | LOX IMVI 4880 nM | LXFL 529 4430 nM | M14 1450 nM | M19-MEL 1740 nM | MDA-MB-231 6140 nM | MOLT-4 2330 nM | NCI-H226 10300 nM | NCI-H23 3520 nM | NCI-H460 1470 nM | NCI/ADR-RES 1980 nM | OVCAR-4 21300 nM | OVCAR-5 20700 nM | OVCAR-8 4120 nM | RPMI-8226 2990 nM | RXF 393 1990 nM | RXF 631 7450 nM | SF-268 4830 nM | SF-539 1340 nM | SK-MEL-28 2770 nM | SK-MEL-2 3890 nM | SK-OV-3 1600 nM | SN12C 5200 nM | SNB-19 4580 nM | SNB-75 1140 nM | SNB-78 4940 nM | T47D > 100000 nM | TK-10 > 44100 nM | U-251 2810 nM | UACC-257 5080 nM | UO-31 6440 nM | XF498 4950 nM
active: DMS-273 516 nM | HL-60 493 nM | HT-29 593 nM | K562 546 nM | KM12 598 nM | MCF7 769 nM | MDA-MB-435 281 nM | MDA-N 206 nM | Malme-3M 887 nM | NCI-H522 735 nM | OVCAR-3 641 nM | PC-3 1030 nM | SF-295 552 nM | SK-MEL-5 593 nM | SR 513 nM | SW-620 802 nM | UACC-62 670 nM
